Patent US20260034125A1, “N-PHENYL-1-(PHENYLSULFONYL)PIPERIDIN-4-AMINE DERIVATIVES AS CCR6 INHIBITORS” (priority 2023, published 2026)

Key:
Format in all cases: cell-based
[1] = biological target: T1, human CCR6 (Homo sapiens, UniProt P51684); assay: CHO-K1 CCR6 chemotaxis assay towards CCL20; conditions: relative -LogIC50; CHO-K1 cells overexpressing human CCR6, 100 ng/ml CCL20, Transwell, 4 h
T1 sequence (P51684 1-374): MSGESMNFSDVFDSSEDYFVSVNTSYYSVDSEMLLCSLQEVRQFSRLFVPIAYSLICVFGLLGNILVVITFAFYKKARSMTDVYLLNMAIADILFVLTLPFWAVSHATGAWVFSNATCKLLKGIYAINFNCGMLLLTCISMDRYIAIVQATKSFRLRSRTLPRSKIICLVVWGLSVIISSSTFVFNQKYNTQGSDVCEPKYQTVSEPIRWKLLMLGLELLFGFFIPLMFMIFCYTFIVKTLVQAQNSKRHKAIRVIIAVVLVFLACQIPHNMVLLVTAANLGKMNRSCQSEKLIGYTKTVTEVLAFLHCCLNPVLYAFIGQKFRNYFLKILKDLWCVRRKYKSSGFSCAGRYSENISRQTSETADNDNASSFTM
Text: Cells overexpressing human CCR6 were used in the chemotaxis assay (DiscoverX, CAMP Hunter™ CHO-K1 CCR6 Gi Cell Line). Growth medium of these cells consisted of DMEM/F12, non-essential Amino acids (1×NEAA, Gibco 11140050), 10% FBS and 1× pen/strep (Gibco 15140). For the chemotaxis assay, Corning Transwell plates were used with a pore size of 8 μm (Corning 351164). Cells were harvested using trypsin and diluted to 4*10^6 cells/ml in chemotaxis medium (DMEM, 0.25% BSA, pen/strep). Compounds were four-fold serially diluted in DMSO. Further dilutions were made in chemotaxis medium. Cells were incubated with test compounds for 30 min at 37° C. prior to initiation of the assay (2*10^6 cells/ml). Final DMSO concentration in the assay was 0.2%. Wells of the Transwell plates were filled with 200 μl chemotaxis medium containing 100 ng/ml CCL20 (R&D systems 360-MP). 50 μl of the cell/compound suspension was added to the inserts of the Transwell plates (100,000 cells/insert). The Transwell plates were placed in an incubator at 37° C., 5% CO2 for 4 h. After 4 h, the number of migrated cells was quantified using CellTiter Glo (Promega). Percentage inhibition values were calculated based on the low and high signal obtained with 0.2% DMSO in chemotaxis medium without and with CCL20, respectively. The relative-LogIC50 was determined with GraphPad Prism 9 using a four-parameter dose-response model.

[2] = biological target: T1, human CCR6; assay: Human CCR6-Cre reporter assay; parameters: The second construct contained the open reading frame of human CCR6 in the pUNO1 backbone; host or cells: 293 FT cells; conditions: relative -LogIC50; transfected 293 FT cells, 6 μM Forskolin, 6 nM CCL20, luciferase readout, 5h
Experimental: 293 FT cells were transfected with 2 constructs using TransIT-293 (Mirus). The first construct (pGL4.29, Promega) expressed the luciferase reporter gene luc2P in response to the binding of cAMP-induced CREB to the CRE element in its promoter. The second construct contained the open reading frame of human CCR6 in the pUNO1 backbone under the control of an enhanced CMV promoter (In VivoGen). 48h after transfection, cells were harvested and diluted to 750,000 cells/ml in culture medium (DMEM, 10% FBS, 1× pen/strep (Gibco 15140)). Compounds were 2.5-fold serially diluted in DMSO. Further dilutions were made in assay medium (DMEM, 10% FBS, 1× pen/strep, 6 μM Forskolin, 6 nM CCL20). 4 μl of the compound solution was added to a white MW384 plate, followed by 20 μl of the cell suspension. Final DMSO concentration in the assay was 0.1%. The MW384 plate was placed in an incubator at 37° C., 5% CO2 for 5h. Luciferase activity was determined by addition of 24 μl of a 2.5× diluted BriteLite luciferase solution (Perkin Elmer), followed by luminescence measurement using a VICTOR Plate reader (Perkin Elmer). […] The relative-LogIC50 was determined with GraphPad Prism 9 using a four-parameter dose-response model.

[3] = system: Human CD4+ T cells; assay: CD4+ T cell chemotaxis assay towards CCL20; conditions: relative -LogIC50, 150 ng/ml CCL20, Transwell, 3 h
Text: Human CD4+ T cells were isolated from buffy coats of healthy donors using a CD4+ T Cell Isolation Kit (Miltenyi Biotec130-096-533). Isolated T cells were stimulated overnight with anti-CD3 and anti-CD28 antibodies (Biolegend 300314/302934) in growth medium (RPMI1640, 10% heat-inactivated FBS, 1× pen/strep (Gibco 15140)). For the chemotaxis assay, Corning Transwell plates were used with a pore size of 5 μm (Corning 3388). T cells were counted and diluted to 6*10^6 cells/ml in chemotaxis medium (RPMI1640, 1% BSA, pen/strep). Compounds were four-fold serially diluted in DMSO. Further dilutions were made in chemotaxis medium. Cells were incubated with test compounds for 30 min at 37° C. prior to initiation of the assay (3*10^6 cells/ml). Final DMSO concentration in the assay was 0.2%. Wells of the Transwell plates were filled with 200 μl chemotaxis medium containing 150 ng/ml CCL20 (R&D systems 360-MP). 50 μl of the cell/compound suspension was added to the inserts of the Transwell plates (150,000 cells/insert). The Transwell plates were placed in an incubator at 37° C., 5% CO2 for 3 h. After 3 h, the number of migrated cells was quantified using CellTiter Glo (Promega). Percentage inhibition values were calculated based on the low and high signal obtained with 0.2% DMSO in chemotaxis medium without and with CCL20, respectively. The relative −LogIC50 was determined with GraphPad Prism 9 using a four-parameter dose-response model.

SMILES | IC50 [1] [nM] | IC50 [2] [nM] | IC50 [3] [nM]
Cc1cnc2ccc(-c3ccc(S(=O)(=O)N4CCC(Nc5ccc(C6(C(F)(F)F)CC6)cc5)CC4)cc3)cn12 [Example 3, 1-(4-{3-methylimidazo[1,2-a]pyridin-6-yl}benzenesulfonyl)-N-{4-[1-(trifluoromethyl)cyclopropyl]phenyl}piperidin-4-amine] | 63.1 | 79.4 | –
CNC(=O)c1cccc(-c2ccc(S(=O)(=O)N3CCC(Nc4ccc(C5(C(F)(F)F)CC5)cc4)CC3)cc2)c1 [Example 4, N-methyl-4′-{[4-({4-[1-(trifluoromethyl)cyclopropyl]phenyl}Amino)piperidin-1-yl]sulfonyl}-[1,1′-biphenyl]-3-carboxamide] | 25.1 | 79.4 | –
CNC(=O)c1ccc(-c2ccc(S(=O)(=O)N3CCC(Nc4ccc(C5(C(F)(F)F)CC5)cc4)CC3)cc2)cc1 [Example 5, N-methyl-4′-{[4-({4-[1-(trifluoromethyl)cyclopropyl]phenyl}Amino)piperidin-1-yl]sulfonyl}-[1,1′-biphenyl]-4-carboxamide] | 158 | 158 | –
CNC(=O)c1ccc(-c2ccc(S(=O)(=O)N3CCC(Nc4ccc(C5(C(F)(F)F)CC5)cc4)CC3)cc2)cn1 [Example 6, N-methyl-5-(4-{[4-({4-[1-(trifluoromethyl)cyclopropyl]phenyl}Amino)piperidin-1-yl]sulfonyl}phenyl)pyridine-2-carboxamide] | 126 | 126 | –
NC(=O)c1ccc(-c2ccc(S(=O)(=O)N3CCC(Nc4ccc(C5(C(F)(F)F)CC5)cc4)CC3)cc2)cc1 [Example 7, 4′-{[4-({4-[1-(trifluoromethyl)cyclopropyl]phenyl}Amino)piperidin-1-yl]sulfonyl}-[1,1′-biphenyl]-4-carboxamide] | 126 | 200 | –
N#Cc1c[nH]c2ccc(-c3ccc(S(=O)(=O)N4CCC(Nc5ccc(C6CC6)cc5)CC4)cc3)cc12 [Example 12, 5-[4-({4-[(4-cyclopropylphenyl)Amino]piperidin-1-yl}sulfonyl)phenyl]-1H-indole-3-carbonitrile] | 251 | 251 | –
N#Cc1c[nH]c2ccc(-c3ccc(S(=O)(=O)[C@H]4CC[C@H](Nc5ccc(C6(C(F)(F)F)CC6)cc5)CC4)cc3)cc12 [Example 16, 5-(4-{[trans-4-({4-[1-(trifluoromethyl)cyclopropyl]phenyl}Amino)cyclohexyl]sulfonyl}phenyl)-1H-indole-3-carbonitrile] | 5.01 | 20 | –
O=S(=O)(c1ccc(-c2ccc3nccn3c2)cc1)[C@H]1CC[C@H](Nc2ccc(C3(C(F)(F)F)CC3)cc2)CC1 [Example 17, N-[trans-4-(4-{imidazo[1,2-a]pyridin-6-yl}benzenesulfonyl)cyclohexyl]-4-[1-(trifluoromethyl)cyclopropyl]aniline] | 39.8 | 100 | –
N#Cc1c[nH]c2ccc(-c3ccc(S(=O)(=O)[C@H]4CC[C@H](Nc5ccc(C6COC6)cc5)CC4)cc3)cc12 [Example 19, 5-(4-{[trans-4-{[4-(oxetan-3-yl)phenyl]Amino}cyclohexyl]sulfonyl}phenyl)-1H-indole-3-carbonitrile] | 251 | 63.1 | –
CC(C)c1cnc2ccc(-c3ccc(S(=O)(=O)[C@H]4CC[C@H](Nc5ccc(C6(C(F)(F)F)CC6)cc5)CC4)cc3)cn12 [Example 20, N-[trans-4-{4-[3-(propan-2-yl)imidazo[1,2-a]pyridin-6-yl]benzenesulfonyl}cyclohexyl]-4-[1-(trifluoromethyl)cyclopropyl]aniline] | 3.98 | 100 | –
CC(C)c1nnc2ccc(-c3ccc(S(=O)(=O)N4CCC(Nc5ccc(C6(C(F)(F)F)CC6)cc5)CC4)cc3)cn12 [Example 40, 1-{4-[3-(propan-2-yl)-[1,2,4]triazolo[4,3-a]pyridin-6-yl]benzenesulfonyl}-N-{4-[1-(trifluoromethyl)cyclopropyl]phenyl}piperidin-4-amine] | 15.8 | 50.1 | 0.631
O=c1[nH]nc2ccc(-c3ccc(S(=O)(=O)N4CCC(Nc5ccc(C6(C(F)(F)F)CC6)cc5)CC4)cc3)cn12 [Example 43, 6-(4-{[4-({4-[1-(trifluoromethyl)cyclopropyl]phenyl}amino)piperidin-1-yl]sulfonyl}phenyl)-2H,3H-[1,2,4]triazolo[4,3-a]pyridin-3-one] | – | 100 | 12.6
O=S(=O)(c1ccc(-c2ccc3nnc(C(F)F)n3c2)cc1)N1CCC(Nc2ccc(C3(C(F)(F)F)CC3)cn2)CC1 [Example 44, N-(1-{4-[3-(difluoromethyl)-[1,2,4]triazolo[4,3-a]pyridin-6-yl]benzenesulfonyl}piperidin-4-yl)-5-[1-(trifluoromethyl)cyclopropyl]pyridin-2-amine] | 6.31 | 50.1 | 6.31
NC(=O)c1cc(-c2ccc(S(=O)(=O)N3CCC(Nc4ccc(C5(C(F)(F)F)CC5)cn4)CC3)cc2)ccn1 [Example 45, 4-(4-{[4-({5-[1-(trifluoromethyl)cyclopropyl]pyridin-2-yl}amino)piperidin-1-yl]sulfonyl}phenyl)pyridine-2-carboxamide] | 20 | 31.6 | 7.94
Cc1cc(-c2ccc(S(=O)(=O)N3CCC(Nc4ccc(C5(C(F)(F)F)CC5)cn4)CC3)cc2)cn2c(C(C)C)nnc12 [Example 46, N-(1-{4-[8-methyl-3-(propan-2-yl)-[1,2,4]triazolo[4,3-a]pyridin-6-yl]benzenesulfonyl}piperidin-4-yl)-5-[1-(trifluoromethyl)cyclopropyl]pyridin-2-amine] | 15.8 | 63.1 | 2
